According to ChEMBL document CHEMBL1201862, “PubChem BioAssay data set” (2004):
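96-well plates; 48 h exposure; 5 concentrations. Endpoints by linear interpolation between flanking doses. Not reached: highest tested concentration assigned. GI50 marks 50% less growth.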 Calls of active or inactive are those of the source. Rule as the data show it: active = GI50 up to about 1.1 µM and inactive = higher.

Key:
Assay in all cases: DTP human tumour cell line panel, 48 h
[1] = test system: DLD-1
[2] = test system: DMS-114
[3] = test system: DMS-273
[4] = test system: HOP-18
[5] = test system: KM-20L2
[6] = test system: M19-MEL
[7] = test system: RXF 631
[8] = test system: SNB-78
[9] = test system: XF498

Row | SMILES | GI50 [1] | GI50 [2] | GI50 [3] | GI50 [4] | GI50 [5] | GI50 [6] | GI50 [7] | GI50 [8] | GI50 [9]
1 | CC(C)=C1CCC(CN2CCCC2)C1=O (centres undefined) | 17.3 µM (inactive) | 20.4 µM (inactive) | 39.4 µM (inactive) | 17.5 µM (inactive) | 89.7 µM (inactive) | 20.6 µM (inactive) | > 100 µM (inactive) | > 100 µM (inactive) | 19.1 µM (inactive)
2 | O=C(/C=C\c1ccc(Cl)c(Cl)c1)c1ccc(Cl)cc1Cl | 5.41 µM (inactive) | > 10 µM (inactive) | 10.4 µM (inactive) | > 10 µM (inactive) | 2.69 µM (inactive) | 18.7 µM (inactive) | 35.9 µM (inactive) | > 10 µM (inactive) | 
3 | COC(=O)C12OCC34C(CC5C(C)=CC(=O)C(O)C5(C)C3C(O)C1O)OC(=O)C(OC(=O)CC(C)C)C24 (centres undefined) | 0.00149 µM (active) | 0.000659 µM (active) | 0.000401 µM (active) |  | 0.00288 µM (active) | 0.00134 µM (active) |  | 0.00346 µM (active) | 0.00116 µM (active)
4 | Cc1c(Cl)cccc1NC(=O)c1cccc([N+](=O)[O-])c1O | 21.4 µM (inactive) | 11.5 µM (inactive) | 12.4 µM (inactive) | 2.7 µM (inactive) | 13.1 µM (inactive) | 13.8 µM (inactive) | 13.8 µM (inactive) | 34.1 µM (inactive) | 16.3 µM (inactive)
5 | CC1=C(C(=O)Nc2ccccc2C)C(/C=C/c2ccccc2)C(C(=O)Nc2ccccc2C)=C(C)N1 | > 100 µM (inactive) |  | > 100 µM (inactive) | > 100 µM (inactive) | > 100 µM (inactive) | > 100 µM (inactive) | > 100 µM (inactive) | > 100 µM (inactive) | > 100 µM (inactive)
6 | C[C@H](C(=O)C12CC3CC(CC(C3)C1)C2)[C@H](O)c1ccccc1 | 45.5 µM (inactive) |  |  | 98.9 µM (inactive) | 20.8 µM (inactive) |  | 31.2 µM (inactive) | 31.6 µM (inactive) | 26 µM (inactive)
7 | CCOC(=O)C1S/C(=N\c2ccc(OC)c(OC)c2)N=C1C (centres undefined) | 31.4 µM (inactive) | 28.5 µM (inactive) | 38.4 µM (inactive) | > 100 µM (inactive) | 27 µM (inactive) |  | 47.6 µM (inactive) | 48.5 µM (inactive) | 29.2 µM (inactive)
8 | CC[P+](C)(C)CC | > 100 µM (inactive) | > 100 µM (inactive) | > 100 µM (inactive) | > 100 µM (inactive) | > 100 µM (inactive) | > 100 µM (inactive) | > 100 µM (inactive) | > 100 µM (inactive) | 
9 | CC12CC(Sc3ccccc3N1)c1ccccc1O2 (centres undefined) | 15.2 µM (inactive) | 15.6 µM (inactive) | 16.3 µM (inactive) | 14.1 µM (inactive) | 18.4 µM (inactive) | 16.7 µM (inactive) | 15.1 µM (inactive) | 16.5 µM (inactive) | 16.3 µM (inactive)
10 | O=C1Nc2ccccc2C12CCCC2 | > 100 µM (inactive) | > 100 µM (inactive) | > 100 µM (inactive) | > 100 µM (inactive) | > 100 µM (inactive) | > 100 µM (inactive) |  | > 100 µM (inactive) | > 100 µM (inactive)
11 | COc1c(C)c2c(c(C)c1Cl)Oc1c(C=O)c(O)c(Cl)c(C)c1C(=O)O2 | 27.7 µM (inactive) | 23.3 µM (inactive) | 22.4 µM (inactive) |  | 30.5 µM (inactive) | 31.3 µM (inactive) |  | 18.2 µM (inactive) | 2.66 µM (inactive)
12 | Cc1cn(C2CC(O)C(CO)O2)c(=O)n2nnnc12 (centres undefined) | > 100 µM (inactive) | > 100 µM (inactive) | > 100 µM (inactive) | > 100 µM (inactive) |  | > 100 µM (inactive) | > 100 µM (inactive) | > 100 µM (inactive) | 
13 | Cn1c2c(c3ccccc31)CCN(CCCCN1CCc3c(n(C)c4ccccc34)C1=O)C2 | > 100 µM (inactive) | 73.1 µM (inactive) | > 100 µM (inactive) | > 100 µM (inactive) | > 100 µM (inactive) | > 100 µM (inactive) | > 100 µM (inactive) | > 100 µM (inactive) | > 100 µM (inactive)
14 | CC(C)(C)N1CC2(CCCCC2)C1=O | > 100 µM (inactive) | > 100 µM (inactive) | > 100 µM (inactive) | > 100 µM (inactive) | > 100 µM (inactive) | > 100 µM (inactive) |  | > 100 µM (inactive) | 
15 | CN1CCN2c3ccccc3CC(C#N)(C#N)C2C1 (centres undefined) | > 100 µM (inactive) | > 100 µM (inactive) | > 100 µM (inactive) | > 100 µM (inactive) | > 100 µM (inactive) | > 100 µM (inactive) | > 100 µM (inactive) | > 100 µM (inactive) | 
16 | CC(=O)Nc1ccc(-c2nnc(SCC(=O)Nc3ccccc3Cl)o2)cc1 | > 100 µM (inactive) | > 100 µM (inactive) | > 100 µM (inactive) | 87.7 µM (inactive) | > 100 µM (inactive) | > 100 µM (inactive) |  | > 100 µM (inactive) | 
17 | C=C1CC2OC2(C(=O)O[C@H]2CCC3[C@@H]4CCC5=CC(=O)CC[C@]5(C)C4CC[C@@]32C)C1=O (some centres undefined) | 2.64 µM (inactive) | 5.2 µM (inactive) | 4.45 µM (inactive) | 5.83 µM (inactive) | 7.57 µM (inactive) | 7.57 µM (inactive) |  | 8.26 µM (inactive) | 5.19 µM (inactive)
18 | O=C1C=CC(=O)c2c1c1c(c3c2C2c4ccccc4C3c3ccccc32)C2c3ccccc3C1c1ccccc12 | 0.982 µM (active) | 1.95 µM (inactive) | 2.11 µM (inactive) |  | 4.46 µM (inactive) | 1.98 µM (inactive) |  | 1.81 µM (inactive) | 1.75 µM (inactive)
19 | CN(C)CCC(=O)N1CCc2c([nH]c3ccccc23)C1c1cccnc1 (centres undefined) | > 100 µM (inactive) | > 100 µM (inactive) | > 100 µM (inactive) | > 100 µM (inactive) | > 100 µM (inactive) | > 100 µM (inactive) | > 100 µM (inactive) | > 100 µM (inactive) | > 100 µM (inactive)
20 | COc1ccc2nccc(C3OC(=O)N4CCC(=O)CC34)c2c1 (centres undefined) |  |  | > 10 µM (inactive) |  | > 100 µM (inactive) | > 100 µM (inactive) | > 100 µM (inactive) | > 100 µM (inactive) | > 100 µM (inactive)
21 | CC(=O)O[C@H]1CC[C@@]2(C)C(CC[C@]3(C)C2CC[C@]2(C)Oc4c(C)cc(O)cc4C[C@@H]23)C1(C)C (some centres undefined) | 10.4 µM (inactive) | 7.1 µM (inactive) | 3.65 µM (inactive) | 13.5 µM (inactive) | 5.5 µM (inactive) | 11.9 µM (inactive) | 5.16 µM (inactive) | 7.52 µM (inactive) | 
22 | COC(=O)c1ccc(NCc2cc(O)ccc2O)cc1 | 18.1 µM (inactive) | 3.52 µM (inactive) | 24.7 µM (inactive) | 14.2 µM (inactive) | 28.4 µM (inactive) | 16.7 µM (inactive) |  | 15.2 µM (inactive) | 2.96 µM (inactive)
23 | O=C1/C=C(/c2ccc(O)cc2)[C@@H](OC2OC(CO)C(O)C(O)C2O)Cc2ccc(O)cc2O1.O=C1/C=C(/c2ccc(O)cc2)[C@H](O)Cc2ccc(O[C@@H]3OC(CO)C(O)C(O)C3O)cc2O1 (some centres undefined) | > 100 µM (inactive) | > 100 µM (inactive) |  |  | > 100 µM (inactive) | > 100 µM (inactive) | > 100 µM (inactive) | > 100 µM (inactive) | 
24 | CC(=O)OC1CCn2nnc(COC(=O)NC(C)C)c21 (centres undefined) | > 100 µM (inactive) | > 100 µM (inactive) |  | > 100 µM (inactive) | > 100 µM (inactive) |  | > 100 µM (inactive) | > 100 µM (inactive) | > 100 µM (inactive)
25 | C[C@H](NC(=O)n1c2ccccc2c2ccccc21)C(=O)O | > 100 µM (inactive) | > 100 µM (inactive) | > 100 µM (inactive) | > 100 µM (inactive) | > 100 µM (inactive) | > 100 µM (inactive) | > 100 µM (inactive) |  | 
26 | CCOC(=O)C(=O)Nc1ccccc1C(F)(F)F | > 100 µM (inactive) |  | > 100 µM (inactive) | 0.9 µM (active) | > 100 µM (inactive) |  |  | > 100 µM (inactive) | > 100 µM (inactive)
27 | O=C(O)[C@@H](NS(=O)(=O)c1ccc([N+](=O)[O-])cc1)c1ccccc1 | > 100 µM (inactive) |  | > 100 µM (inactive) | > 100 µM (inactive) | > 100 µM (inactive) | > 100 µM (inactive) | > 100 µM (inactive) |  | > 100 µM (inactive)
